# Measurements from patent EP4755393A1, “USE OF PROTON PUMP REGULATOR IN PREPARATION OF DRUG” (Shanghai Quietd Biotechnology Co., Ltd., priority 2023, dated 2025).
# “Also recorded” adds a separate entry of the source. Ends that are not written are not given here.
# Assays:
# [1] = test system: hippocampal CA1 pyramidal neurons; experiment: Whole-cell patch-clamp recording of spontaneous excitatory postsynaptic current (sEPSC) in hippocampal brain sections; assay type: cell-based, C57 mouse; settings: 5 µM polypeptide applied for 5 min; clamp voltage -70 mV; FIGS. 8A-8C
# Text: • Polypeptide QD202 was synthesized according to the amino acid sequence set forth in SEQ ID NO: 1. • Polypeptide QD202 N'-1 was synthesized according to the amino acid sequence set forth in SEQ ID NO: 2. • Polypeptide QD202 C'-1 was synthesized according to the amino acid sequence set forth in SEQ ID NO: 3. • Polypeptide QD202 C'-2 was synthesized according to the amino acid sequence set forth in SEQ ID NO: 4. • Polypeptide SS8 was synthesized according to the amino acid sequence set forth in SEQ ID NO: 54.
# 0.1-0.15 ml of 20% ethyl carbamate was injected into the abdominal cavity of a C57 mouse of 2 to 3 months old for anesthesia; a head was quickly cut, and brain tissues were stripped and put into artificial cerebrospinal fluid (ACSF) ice-water mixed liquid into which mixed gas (95%O2 and 5%CO2) was introduced in advance, and stood for 2 min; the ACSF included the following components: […] of NaCl, […] of KCl, 0.12 mM of NaH2PO4, […] of CaCl2, 0.12 mM of MgCl2, 25 mM of NaHCO3 and 11 mM of glucose. A hippocampus coronal brain section of […] was cut by a vibration slicer. […] The recorded data were analyzed by Minianalysis software.
# APP/PS1 transgenic mice = experiment: Novel object recognition test in AD mice; assay type: in vivo; settings: continuously for 1 week
# Male SD rats = settings: rat, in vivo
# hATP6V1B2 = hATP6V1B2 (Homo sapiens, UniProt P21281); experiment: Co-immunoprecipitation of Myc-tagged hATP6V1B2 with GFP-tagged QD202 and site mutants (HEK 293 lysates, western blot); assay type: binding; settings: expressed from pEGFP-N3 plasmids in HEK 293, anti-GFP IP, FIG. 7A, 7B
# Procedure: Expression plasmids of hATP6V1B2, QD202, site-mutated QD202(D15A), site-mutated QD202(V16A), site-mutated QD202(P13A), and site-mutated QD202(V14A) were constructed respectively. The hATP6V1B2 was co-transfected into HEK 293 cells with the expression plasmids of QD202, site-mutated QD202(D15A), site-mutated QD202(V16A), site-mutated QD202(P13A) and site-mutated QD202(V14A), respectively, and cellular proteins were extracted 48 h after transfection. Table 1: Plasmid sequences
# Protein extraction was performed using Pierce RIPA lysis buffer. Taking cells in a 60 mm culture dish as an example, 500 µL of Pierce RIPA lysis buffer containing protease inhibitors was added. Cells were collected and transferred to a clean 1.5 mL EP tube using a cell scraper. After mixing for 1 h on a rotary mixer at 4°C, the cells were centrifuged at 13,000 rpm at 4°C for 10 min to remove cell debris. The hATP6V1B2 was equally divided into […], which were then mixed separately with the cell lysates transfected with QD202, site-mutated QD202(P13A), site-mutated QD202(V14A), site-mutated QD202(D15A), and site-mutated QD202(V16A), 30 µL of the supernatant was taken and mixed with 10 µL of 4× loading buffer, followed by boiling at 100°C for 5 min and storage at -20°C; 2 µL of the antibody (Anti-GFP, Roche, 11814460001) was added to the remaining 470 µL of the protein lysate, and the mixture was incubated overnight (about 16-18 h) on a rotary shaker at 4°C. 30 µL of Protein G Sepharose beads (Roche, 11243233001) were placed in an EP tube and washed three times with Pierce RIPA lysis buffer to eliminate interference from the original stock solution. The protein that had been incubated with the antibody overnight was added to the Sepharose beads, followed by mixing and incubation at 4°C for 2 h to ensure sufficient binding between the antibody and the protein. The mixture was centrifuged at 4000 rpm for 1 min. The supernatant was aspirated off, followed by the addition of 600 µL of Pierce RIPA lysis buffer. The tube was gently inverted, followed by centrifugation to collect the supernatant. The above steps were repeated three times to wash away non-specifically bound proteins. Finally, 30 µL of 1×loading buffer was added, the mixture was mixed well, heated at 60°C for 20 min to denature the protein, and then stored at -20°C. The protein was examined by western blot (Myc-Tag (9B11) Mouse mAb, CST, 2276S; Anti-GFP, Roche, 11814460001).
# The hATP6V1B2 was co-transfected into the host cell line HEK 293 with the expression plasmids of QD202, site-mutated QD202(P13A), site-mutated QD202(V14A), site-mutated QD202(D15A) and site-mutated QD202(V16A), respectively. […] It is therefore hypothesized that valine at position 16 of QD202 is one of the key amino acids for the binding between hATP6V1B2 and QD202, whereas proline at position 13, valine at position 14 and aspartic acid at position 15 can be replaced with alanine, as illustrated in FIG. 7A and FIG. 7B.
# hATP6V1B2, sequence (P21281 whole entry): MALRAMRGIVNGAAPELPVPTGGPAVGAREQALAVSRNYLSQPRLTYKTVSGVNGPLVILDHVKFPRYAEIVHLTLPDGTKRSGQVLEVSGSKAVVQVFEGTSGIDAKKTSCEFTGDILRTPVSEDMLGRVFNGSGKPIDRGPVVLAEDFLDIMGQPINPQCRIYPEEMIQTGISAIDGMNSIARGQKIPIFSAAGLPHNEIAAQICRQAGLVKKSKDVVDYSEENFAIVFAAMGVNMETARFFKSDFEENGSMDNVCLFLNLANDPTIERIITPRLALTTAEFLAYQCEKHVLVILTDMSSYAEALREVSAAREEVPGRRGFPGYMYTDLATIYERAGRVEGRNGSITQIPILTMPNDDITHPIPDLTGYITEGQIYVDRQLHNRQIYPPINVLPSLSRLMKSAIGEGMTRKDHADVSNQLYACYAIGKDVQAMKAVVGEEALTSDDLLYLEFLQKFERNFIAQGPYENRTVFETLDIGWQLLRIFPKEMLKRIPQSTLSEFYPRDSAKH
substance,measurement,setting,value
QD202: Polypeptide synthesized according to the amino acid sequence set forth in SEQ ID NO: 1; ATP6V1B2 regulator / DIR regulator (YGRKKRRQRRRSPVDVVCS; not fully specified),excitatory postsynaptic current amplitude,[1],no influence
same,release frequency of excitatory postsynaptic current,[1],increasing
same,learning and cognitive functions in the novel object recognition test,"APP/PS1 transgenic mice; intragastric, 6.25 mg/kg, ten-month-old APP/PS1 mice, FIG. 9",obvious improvement of learning and cognitive functions
same,learning and cognitive functions in novel object recognition,"APP/PS1 transgenic mice; intravenous injection, 1.25 mg/kg, APP/PS1 mice of 10 months old, FIG. 11",obvious improvement on learning and cognitive functions
same,infarct volume,Male SD rats,"lower than that of the Model + QD202 placebo group, with a statistical difference (p<0.05); also recorded: lower than that of the Model + QD202 placebo group, with extremely significant statistical differences (p<0.001)"
same,binding to Myc-tagged hATP6V1B2 (co-immunoprecipitation),hATP6V1B2,bind to
